Source: USRE32310E, “Derivatives of A-21978C cyclic peptides” (Eli Lilly and Company, priority 1985, dated 1986)
≈ marks a conversion by molar mass, not a printed value.

Assays:
Streptococcus pyogenes = assay: In vivo activity against experimental bacterial infection; conditions: mice, two doses
Procedure: (§1) The representative A-21978C cyclic peptide of formula 1 has shown in vivo antimicrobial activity against experimental bacterial infections. When two doses of test compound were administered to mice in illustrative infections, the activity observed was measured as an ED50 value [effective dose in mg/kg to protect fifty percent of the test animals: See Warren Wick, et al., J. Bacteriol. 81, 233-235 (1961)].

Staphylococcus aureus = assay: as above; conditions: mice, subcutaneous, two doses
Procedure: as §1

[1] = tested on: Micrococcus luteus ATCC 9341; assay: Agar-plate disc-diffusion test; format: cell-based; conditions: 1 mg/ml, 7mm disc, 24-48 hours at 25-37° C.
[2] = tested on: Staphylococcus aureus X1.1; assay: Standard agar-dilution test (MIC); format: cell-based
Procedure: (§2) The results of the antibacterial testing of a representative compound of formula 1, using the standard agar-dilution test, are summarized in Table II. In Table II activity is measured by the minimal inhibitory concentration (MIC), i.e. the lowest concentration of compound which inhibits the growth of the microorganism.

[3] = tested on: Staphylococcus epidermidis EPI1; assay: Standard agar-dilution test (MIC); format: cell-based
Procedure: as §2

Streptococcus Group 9960 = assay: Standard agar-dilution test (MIC); format: cell-based
Procedure: as §2

[4] = tested on: Staphylococcus aureus V41; assay: Standard agar-dilution test (MIC); format: cell-based; conditions: Staphylococcus aureus V41, penicillin-resistant strain
Procedure: as §2

[5] = tested on: Streptococcus pyogenes C203; assay: Standard agar-dilution test (MIC); format: cell-based
Procedure: as §2

[6] = tested on: Staphylococcus aureus S13E; assay: Standard agar-dilution test (MIC); format: cell-based
Procedure: as §2

[7] = tested on: Streptococcus Group D X66; assay: Standard agar-dilution test (MIC); format: cell-based
Procedure: as §2

[8] = tested on: Staphylococcus aureus X400; assay: Standard agar-dilution test (MIC); format: cell-based; conditions: Staphylococcus aureus X400, methicillin-resistant strain
Procedure: as §2

[9] = tested on: Staphylococcus epidermidis EPI2; assay: Standard agar-dilution test (MIC); format: cell-based
Procedure: as §2

[10] = tested on: Staphylococcus aureus ATCC 6738P; assay: Agar-plate disc-diffusion test; format: cell-based; conditions: compound suspended in water at 1 mg/ml, 7mm disc, 24-48 hours at 25-37° C.
[11] = tested on: Bacillus subtilis ATCC 6633; assay: Agar-plate disc-diffusion test; conditions: 1 mg/ml, 7mm disc
Procedure: ^a Compounds were suspended in water at a concentration of 1 mg/ml; a
7mm disc was dipped into the suspension and then placed on the agar
surface; incubation 24-48 hours at 25-37° C.

[12] = B. subtilis ATCC 6633 grown on minimal nutrient agar
[13] = Bacillus subtilis ATCC 6633, 24-48 hours at 25-37° C.

Compound: CCCCCCCCCCCCOc1ccc(C(=O)N[C@@H](Cc2c[nH]c3ccccc23)C(=O)N[C@H](CC(N)=O)C(=O)N[C@@H](CC(=O)O)C(=O)N[C@@H]2C(=O)NCC(=O)N[C@@H](CCCN)C(=O)N[C@@H](CC(=O)O)C(=O)N[C@H](C)C(=O)N[C@@H](CC(=O)O)C(=O)NCC(=O)N[C@H](CO)C(=O)N[C@@H]([C@H](C)CC(=O)O)C(=O)N[C@@H](CC(=O)c3ccccc3N)C(=O)O[C@@H]2C)cc1 [NTrp --p-(n-Dodecyloxy)benzoyl-A-21978C, NTrp -p-(n-dodecyloxy)benzoyl-A-21978C Nucleus]
- ED50 Values (Streptococcus pyogenes; oral): > 200 mg/kg × 2
- ED50 Values (Streptococcus pyogenes; subcutaneous): 0.31 mg/kg × 2
- ED50 Values (Staphylococcus aureus): 3.35 mg/kg × 2
- Size of Zone of Inhibition [1]: 18 mm
- MIC Values [2]: 1 µg/mL (≈ 0.57 µM)
- MIC Values [3]: 4 µg/mL (≈ 2.28 µM)
- MIC Values (Streptococcus Group 9960): 1 µg/mL (≈ 0.57 µM)
- MIC Values [4]: 1 µg/mL (≈ 0.57 µM)
- MIC Values [5]: 0.25 µg/mL (≈ 0.142 µM)
- MIC Values [6]: 1 µg/mL (≈ 0.57 µM)
- MIC Values [7]: 2 µg/mL (≈ 1.14 µM)
- MIC Values [8]: 2 µg/mL (≈ 1.14 µM)
- MIC Values [9]: 2 µg/mL (≈ 1.14 µM)
- Size of Zone of Inhibition [10]: 20 mm
- Size of Zone of Inhibition [11, 12]: 20 mm
- Size of Zone of Inhibition [11, 13]: 13 mm

Compound: NTrp -p-(n-Dodecyloxy)benzoyl-NOrn -t-BOC-A-21978C Nucleus [p-(n-dodecyloxy)benzoyl t-BOC]
- Size of Zone of Inhibition [1]: 15 mm
- Size of Zone of Inhibition [10]: 20 mm
- Size of Zone of Inhibition [11, 12]: 22 mm
- Size of Zone of Inhibition [11, 13]: 10 mm
